The target in assay [1] is T1, baculovirus-expressed ALK (Homo sapiens, UniProt Q9UM73).
T1 construct: host or cells: baculovirus expression system
The assay can be described thus: ALK Kinase Assay (ELISA-type, time-resolved fluorescence). Particulars: ALK kinase inhibition, 1 μM ATP (Km level); read-out: ALK Activity. It counts as biochemical. The procedure, abridged:
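Wells were coated with phospholipase C-γ at 10 μg/mL in Tris-buffered saline. Adding 30 ng/ml enzyme started the reaction, which ran at 37° C for 15 minutes before Eu-N1 PT66 antibody detection. Percent inhibition versus log10 concentration gave IC50 by variable-slope fit.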

The target in assay [2] is T2, c-Met (cytoplasmic domain) (Homo sapiens, UniProt P08581).
T2 construct: 10 ng/mL c-Met (cytoplasmic domain, Invitrogen Corporation #PV3143); purchased Invitrogen Corporation PV3143
T2 sequence (P08581 956-1390 limits assumed): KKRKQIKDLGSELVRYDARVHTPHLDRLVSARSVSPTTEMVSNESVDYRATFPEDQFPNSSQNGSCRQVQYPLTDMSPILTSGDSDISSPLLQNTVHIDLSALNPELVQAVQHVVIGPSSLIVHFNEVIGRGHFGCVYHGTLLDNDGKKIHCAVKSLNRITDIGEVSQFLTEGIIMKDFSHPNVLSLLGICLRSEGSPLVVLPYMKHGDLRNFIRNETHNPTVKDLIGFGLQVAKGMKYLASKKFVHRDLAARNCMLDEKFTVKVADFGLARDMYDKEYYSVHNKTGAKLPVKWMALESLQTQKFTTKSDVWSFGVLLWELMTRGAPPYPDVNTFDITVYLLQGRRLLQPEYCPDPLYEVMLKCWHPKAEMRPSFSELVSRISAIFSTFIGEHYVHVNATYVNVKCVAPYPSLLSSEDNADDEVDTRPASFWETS
The assay can be described thus: c-Met Kinase Assay (same methods as for ALK, with modifications). The class given is biochemical. Particulars: c-Met kinase inhibition, 1 μM ATP (Km level); read-out: cMet Activity. The procedure, abridged: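 Steps: coat wells with PLC-γ (10 μg/mL, Tris-buffered saline); add 10 ng/mL c-Met cytoplasmic domain to initiate; incubate 15 min, 37° C; detect phosphoproduct via Eu-N1 PT66 antibody.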

SMILES strings stand for the structures.

T1 sequence (Q9UM73 19-1620): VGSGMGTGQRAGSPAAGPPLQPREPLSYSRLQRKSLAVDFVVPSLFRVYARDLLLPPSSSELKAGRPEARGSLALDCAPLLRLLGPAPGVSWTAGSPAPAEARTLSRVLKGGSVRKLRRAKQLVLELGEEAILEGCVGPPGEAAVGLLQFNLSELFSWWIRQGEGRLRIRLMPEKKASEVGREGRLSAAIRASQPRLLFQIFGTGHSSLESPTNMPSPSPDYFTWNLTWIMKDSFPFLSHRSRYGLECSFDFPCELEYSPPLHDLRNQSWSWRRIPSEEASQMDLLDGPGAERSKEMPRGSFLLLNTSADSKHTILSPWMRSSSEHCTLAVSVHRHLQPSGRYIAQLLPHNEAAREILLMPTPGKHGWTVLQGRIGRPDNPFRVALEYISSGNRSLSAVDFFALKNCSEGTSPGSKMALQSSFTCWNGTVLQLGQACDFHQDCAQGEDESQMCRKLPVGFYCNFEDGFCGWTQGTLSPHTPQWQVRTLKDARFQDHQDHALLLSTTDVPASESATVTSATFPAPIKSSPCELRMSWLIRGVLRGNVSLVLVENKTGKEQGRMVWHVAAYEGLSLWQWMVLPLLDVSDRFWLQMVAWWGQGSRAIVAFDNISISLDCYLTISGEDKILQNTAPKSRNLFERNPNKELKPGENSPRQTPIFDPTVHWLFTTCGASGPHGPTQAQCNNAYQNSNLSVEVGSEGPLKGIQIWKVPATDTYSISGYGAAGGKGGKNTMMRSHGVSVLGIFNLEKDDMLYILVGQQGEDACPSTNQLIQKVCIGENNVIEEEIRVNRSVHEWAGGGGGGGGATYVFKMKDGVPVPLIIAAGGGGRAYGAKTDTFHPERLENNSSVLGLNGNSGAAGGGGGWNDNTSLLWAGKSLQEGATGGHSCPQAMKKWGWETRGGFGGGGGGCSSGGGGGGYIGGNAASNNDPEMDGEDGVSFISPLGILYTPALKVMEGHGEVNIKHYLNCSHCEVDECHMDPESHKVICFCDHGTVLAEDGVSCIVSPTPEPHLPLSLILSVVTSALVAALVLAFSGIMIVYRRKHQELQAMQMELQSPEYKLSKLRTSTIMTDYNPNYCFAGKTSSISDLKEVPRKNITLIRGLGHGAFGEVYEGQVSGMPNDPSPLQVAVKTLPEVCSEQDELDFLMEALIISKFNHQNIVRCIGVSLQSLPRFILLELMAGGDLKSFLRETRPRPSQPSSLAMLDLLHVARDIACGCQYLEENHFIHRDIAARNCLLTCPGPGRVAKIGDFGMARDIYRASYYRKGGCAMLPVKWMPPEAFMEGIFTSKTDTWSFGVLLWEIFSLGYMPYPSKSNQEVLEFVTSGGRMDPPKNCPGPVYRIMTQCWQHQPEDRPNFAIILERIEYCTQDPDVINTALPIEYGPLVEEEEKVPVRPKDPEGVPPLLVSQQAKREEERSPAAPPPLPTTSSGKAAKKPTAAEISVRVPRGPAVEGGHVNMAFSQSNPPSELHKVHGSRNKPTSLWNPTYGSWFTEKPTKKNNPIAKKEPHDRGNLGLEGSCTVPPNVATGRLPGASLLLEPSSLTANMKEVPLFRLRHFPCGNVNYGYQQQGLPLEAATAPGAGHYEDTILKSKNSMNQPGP

As to `CNC(=O)c1ccccc1Nc1nc(Nc2ccc3c(c2)C2CN(S(C)(=O)=O)CC3O2)ncc1Cl` (stereo not drawn) [Example 64, 2-[5-Chloro-2-(10-methanesulfonyl-12-oxa-10-aza-tricyclo[6.3.1.0*2,7*]dodeca-2(7),3,5-trien-4-ylamino)-pyrimidin-4-ylamino]-N-methyl-benzamide], the IC50 is 100 to 1000 nM in assay [1] and below 100 nM in assay [2].

For the compound `CNC(=O)c1ccccc1Nc1nc(Nc2ccc3c(c2)C2CNCC3O2)ncc1Cl` (stereo not drawn) [Example 65, 2-[5-Chloro-2-(12-oxa-10-aza-tricyclo[6.3.1.0*2,7*]dodeca-2(7),3,5-trien-4-ylamino)-pyrimidin-4-ylamino]-N-methyl-benzamide], the IC50 in assay [1] and in assay [2] was 100 to 1000 nM throughout.

As for `CCN1CC2OC(C1)c1cc(Nc3ncc(Cl)c(Nc4ccccc4S(=O)(=O)NC)n3)ccc12` (stereo not drawn) [Example 66, 2-[5-Chloro-2-(10-ethyl-12-oxa-10-aza-tricyclo[6.3.1.0*2,7*]dodeca-2(7),3,5-trien-4-ylamino)-pyrimidin-4-ylamino]-N-methyl-benzenesulfonamide], the IC50 was below 100 nM in assay [1] and 1000 to 10000 nM in assay [2].

For `CCOC(=O)N1C2CCC1c1cc(Nc3ncc(Cl)c(Nc4ccccc4C(=O)NC)n3)ccc1C2` (stereo not drawn) [Example 67, 4-[5-Chloro-4-(2-methylcarbamoyl-phenylamino)-pyrimidin-2-ylamino]-12-aza-tricyclo[7.2.1.0*2,7*]dodeca-2(7),3,5-triene-12-carboxylic acid ethyl ester], the IC50 in assay [1] and in assay [2] was below 100 nM throughout.

`CNC(=O)c1ccccc1Nc1nc(Nc2ccc3c(c2)C2CCC(C3)N2CCOC)ncc1Cl` (stereo not drawn) [Example 68, 2-{5-Chloro-2-[12-(2-methoxy-ethyl)-12-aza-tricyclo[7.2.1.0*2,7*]dodeca-2(7),3,5-trien-4-ylamino]-pyrimidin-4-ylamino}-N-methyl-benzamide]: the IC50 in assay [1] and in assay [2] was below 100 nM throughout.

In the case of `C#CCN1C2CCC1c1cc(Nc3ncc(Cl)c(Nc4ccccc4C(=O)NC)n3)ccc1C2` (stereo not drawn) [Example 69, 2-[5-Chloro-2-(12-prop-2-ynyl-12-aza-tricyclo[7.2.1.0*2,7*]dodeca-2(7),3,5-trien-4-ylamino)-pyrimidin-4-ylamino]-N-methyl-benzamide], the IC50 in assay [1] and in assay [2] was below 100 nM each time.

With `CNC(=O)c1ccccc1Nc1nc(Nc2ccc3c(c2)C2CCC(C3)N2C(=O)C2CC2)ncc1Cl` (stereo not drawn) [Example 70, 2-[5-Chloro-2-(12-cyclopropanecarbonyl-12-aza-tricyclo[7.2.1.0*2,7*]dodeca-2(7),3,5-trien-4-ylamino)-pyrimidin-4-ylamino]-N-methyl-benzamide], the IC50 in assay [1] and in assay [2] was below 100 nM in each case.

As for `CCN1C2CCC1c1cc(Nc3ncc(Cl)c(N[C@@H]4CCCC[C@H]4NS(C)(=O)=O)n3)ccc1C2` (stereo partly drawn) [Example 71, N-{(1R,2R)-2-[5-Chloro-2-(12-ethyl-12-aza-tricyclo[7.2.1.0*2,7*]dodeca-2(7),3,5-trien-4-ylamino)-pyrimidin-4-ylamino]-cyclohexyl}-methanesulfonamide], the IC50 in assay [1] was below 100 nM; in assay [2], 100 to 1000 nM.

On to `CCN1C2CCC1c1cc(Nc3ncc(Cl)c(Nc4ccccc4NS(C)(=O)=O)n3)ccc1C2` (stereo not drawn) [Example 72, N-{2-[5-Chloro-2-(12-ethyl-12-aza-tricyclo[7.2.1.0*2,7*]dodeca-2(7),3,5-trien-4-ylamino)-pyrimidin-4-ylamino]-phenyl}-methanesulfonamide], for which the values for the IC50 in assay [1] and in assay [2] were below 100 nM and 100 to 1000 nM, respectively.

As to `CCN1C2CCC1c1c(ccc(Nc3ncc(Cl)c(Nc4ccccc4C(=O)NC)n3)c1Cl)C2` (stereo not drawn) [Example 73, 2-[5-Chloro-2-(3-chloro-12-ethyl-12-aza-tricyclo[7.2.1.0*2,7*]dodeca-2(7),3,5-trien-4-ylamino)-pyrimidin-4-ylamino]-N-methyl-benzamide], the IC50 was below 100 nM in assay [1] and 100 to 1000 nM in assay [2].

Consider `CCOC(=O)N1C2CCC1c1cc(Nc3ncc(Cl)c(Nc4ccccc4C(=O)NC)n3)c(Cl)cc1C2` (stereo not drawn) [Example 74, 5-Chloro-4-[5-chloro-4-(2-methylcarbamoyl-phenylamino)-pyrimidin-2-ylamino]-12-aza-tricyclo[7.2.1.0*2,7*]dodeca-2(7),3,5-triene-12-carboxylic acid ethyl ester], for which the IC50 is 100 to 1000 nM in assay [1] and above 10000 nM in assay [2].

With `CCOC(=O)N1C2CCC1c1c(ccc(Nc3ncc(Cl)c(Nc4ccccc4C(=O)NC)n3)c1Cl)C2` (stereo not drawn) [Example 75, 3-Chloro-4-[5-chloro-4-(2-methylcarbamoyl-phenylamino)-pyrimidin-2-ylamino]-12-aza-tricyclo[7.2.1.0*2,7*]dodeca-2(7),3,5-triene-12-carboxylic acid ethyl ester], the results for the IC50 in assay [1] and in assay [2] were below 100 nM and 1000 to 10000 nM, respectively.

Take `COCCN1C2CCC1c1cc(Nc3ncc(Cl)c(Nc4ccccc4NS(C)(=O)=O)n3)ccc1C2` (stereo not drawn) [Example 76, N-(2-{5-Chloro-2-[12-(2-methoxy-ethyl)-12-aza-tricyclo[7.2.1.0*2,7*]dodeca-2(7),3,5-trien-4-ylamino]-pyrimidin-4-ylamino}-phenyl)-methanesulfonamide]: the results for the IC50 in assay [1] and in assay [2] were below 100 nM and 100 to 1000 nM, respectively.

Consider `COCCN1C2CCC1c1cc(Nc3ncc(Cl)c(N[C@@H]4CCCC[C@H]4NS(C)(=O)=O)n3)ccc1C2` (stereo partly drawn) [Example 77, N-((1R,2R)-2-{5-Chloro-2-[12-(2-methoxy-ethyl)-12-aza-tricyclo[7.2.1.0*2,7*]dodeca-2(7),3,5-trien-4-ylamino]-pyrimidin-4-ylamino}-cyclohexyl)-methanesulfonamide], for which the figures for the IC50 in assay [1] and in assay [2] were below 100 nM and 100 to 1000 nM, respectively.

Regarding `CCOC(=O)N1C2CCC1c1cc(C(=O)OC)cc(Nc3ncc(Cl)c(Nc4ccccc4C(=O)NC)n3)c1C2` (stereo not drawn) [Example 78, 6-[5-Chloro-4-(2-methylcarbamoyl-phenylamino)-pyrimidin-2-ylamino]-12-aza-tricyclo[7.2.1.0*2,7*]dodeca-2(7),3,5-triene-4,12-dicarboxylic acid 12-ethyl ester 4-methyl ester], the IC50 in assay [1] is below 100 nM; in assay [2], 100 to 1000 nM.

For the compound `CNC(=O)c1ccccc1Nc1nc(Nc2ccc3c(c2)C2CCC(C3)N2)ncc1Cl` (stereo not drawn) [Example 79, 2-[2-(12-Aza-tricyclo[7.2.1.0*2,7*]dodeca-2(7),3,5-trien-4-ylamino)-5-chloro-pyrimidin-4-ylamino]-N-methyl-benzamide], the IC50 in assay [1] and in assay [2] was below 100 nM throughout.

With `CNC(=O)c1ccccc1Nc1nc(Nc2ccc3c(c2)C2CCC(C3)N2C(C)C)ncc1Cl` (stereo not drawn) [Example 80, 2-[5-Chloro-2-(12-isopropyl-12-aza-tricyclo[7.2.1.0*2,7*]dodeca-2(7),3,5-trien-4-ylamino)-pyrimidin-4-ylamino]-N-methyl-benzamide], the IC50 in assay [1] and in assay [2] was below 100 nM in each case.

For `CNC(=O)c1ccccc1Nc1nc(Nc2ccc3c(c2Cl)C2CCC(C3)N2)ncc1Cl` (stereo not drawn) [Example 81, 2-[5-Chloro-2-(3-chloro-12-aza-tricyclo[7.2.1.0*2,7*]dodeca-2(7),3,5-trien-4-ylamino)-pyrimidin-4-ylamino]-N-methyl-benzamide], the IC50 in assay [1] is below 100 nM; in assay [2] it was 100 to 1000 nM.

Turning to `CS(=O)(=O)N[C@@H]1CCCC[C@H]1Nc1nc(Nc2ccc3c(c2)C2CCC(C3)N2)ncc1Cl` (stereo partly drawn) [Example 82, N-{(1R,2R)-2-[2-(12-Aza-tricyclo[7.2.1.0*2,7*]dodeca-2(7),3,5-trien-4-ylamino)-5-chloro-pyrimidin-4-ylamino]-cyclohexyl}-methanesulfonamide], the values for the IC50 in assay [1] and in assay [2] were 1000 to 10000 nM and 100 to 1000 nM, respectively.

`CC(C)N1C2CCC1c1cc(Nc3ncc(Cl)c(N[C@@H]4CCCC[C@H]4NS(C)(=O)=O)n3)ccc1C2` (stereo partly drawn) [Example 83, N-{(1R,2R)-2-[5-Chloro-2-(12-isopropyl-12-aza-tricyclo[7.2.1.0*2,7*]dodeca-2(7),3,5-trien-4-ylamino)-pyrimidin-4-ylamino]-cyclohexyl}-methanesulfonamide]: the figures for the IC50 in assay [1] and in assay [2] were below 100 nM and 100 to 1000 nM, respectively.

Take `CNC(=O)c1ccccc1Nc1nc(Nc2ccc3c(c2Cl)C2CCC(C3)N2C(C)C)ncc1Cl` (stereo not drawn) [Example 86, 2-[5-Chloro-2-(3-chloro-12-isopropyl-12-aza-tricyclo[7.2.1.0*2,7*]dodeca-2(7),3,5-trien-4-ylamino)-pyrimidin-4-ylamino]-N-methyl-benzamide]: the IC50 in assay [1] was below 100 nM; in assay [2] it was 100 to 1000 nM.

In the case of `CNC(=O)c1ccccc1Nc1nc(Nc2ccc3c(c2Cl)C2CCC(C3)N2CCOC)ncc1Cl` (stereo not drawn) [Example 87, 2-{5-Chloro-2-[3-chloro-12-(2-methoxy-ethyl)-12-aza-tricyclo[7.2.1.0*2,7*]dodeca-2(7),3,5-trien-4-ylamino]-pyrimidin-4-ylamino}-N-methyl-benzamide], the results for the IC50 in assay [1] and in assay [2] were below 100 nM and 100 to 1000 nM, respectively.

On to `CNC(=O)c1ccccc1Nc1nc(Nc2cc3c(cc2Cl)CC2CCC3N2CCOC)ncc1Cl` (stereo not drawn) [Example 88, 2-{5-Chloro-2-[5-chloro-12-(2-methoxy-ethyl)-12-aza-tricyclo[7.2.1.0*2,7*]dodeca-2(7),3,5-trien-4-ylamino]-pyrimidin-4-ylamino}-N-methyl-benzamide], for which the IC50 in assay [1] was below 100 nM; in assay [2], 1000 to 10000 nM.

With `CNC(=O)c1cccc(Cl)c1Nc1nc(Nc2ccc3c(c2)C2CCC(C3)N2)ncc1Cl` (stereo not drawn) [Example 90, 2-[2-(12-Aza-tricyclo[7.2.1.0*2,7*]dodeca-2(7),3,5-trien-4-ylamino)-5-chloro-pyrimidin-4-ylamino]-3-chloro-N-methyl-benzamide], the IC50 in assay [1] was 100 to 1000 nM; in assay [2], below 100 nM.

These data come from US8148391B2 (Cephalon, Inc., priority 2006, dated 2012).
